Data as given in patent US9120774B2 (University of Kansas, priority 2009, dated 2015).
Like-named read-outs stand apart in the source and are kept apart here.

Tests used:
Type in all cases: cell-based
[1] = test system: SkBr3 (Her2 overexpressing breast cancer cells); assay: Anti-proliferation activity against SkBr3 cells (MTS/PMS)
Procedure, shortened: (§1)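 Viability after 72 h compound treatment (1% DMSO final, 37° C., 5% CO2) measured by MTS/PMS; plating density 2000 cells/well with overnight attachment.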

[2] = test system: MCF-7 (estrogen receptor positive breast cancer cells); assay: Anti-proliferation activity against MCF-7 cells (MTS/PMS)
Procedure, shortened: as §1

cancer cell lines = assay: Anti-proliferative activity, statements covering several cancer cell lines; details: for fold reduced activity versus the compound with a hydrogen at the 5-position: both breast cancer cell lines
Description: Upon completion of synthesis of library of compounds in Examples 23 and 24, the compounds were evaluated for anti-proliferative activity against SkBr3 (Her2 overexpressing breast cancer cells), MCF-7 (estrogen receptor positive breast cancer cells), HCT-116 (colon cancer cells characterized by wild-type p53), PL45 (pancreatic cancer cells), LNCaP (androgen sensitive prostate cancer cells) and PC-3 (androgen independent prostate cancer cells) cell lines. […] The monosubstituted benzamide variants improved activity.
(§2) Cells were maintained in a 1:1 mixture of Advanced DMEM/F12 (Gibco) supplemented with non-essential amino acids, L-glutamine (2 mM), streptomycin (500 ng/mL), penicillin (100 units/mL), and 10% FBS. Cells were grown to confluence in a humidified atmosphere (37° C., 5% CO2), seeded (2000/well, 100 μl) in 96-well plates, and allowed to attach overnight. Compound or GDA at varying concentrations in DMSO (1% DMSO final concentration) was added, and cells were returned to the incubator for 72 hours. At 72 hours, the number of viable cells was determined using an MTS/PMS cell proliferation kit (Promega) per the manufacturer's instructions. Cells incubated in 1% DMSO were used at 100% proliferation, and values were adjusted accordingly. IC50 values were calculated from separate experiments performed in triplicate using GraphPad Prism.
as §2, with “μg/mL),” for “ng/mL),”, “μL)” for “μl)”

[3] = test system: LNCaP (androgen sensitive prostate cancer cells); assay: Anti-proliferation activity against LNCaP cells; details: Homo sapiens, LNCaP
Procedure, shortened: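 Cells seeded at 2000/well in Advanced DMEM/F12 with 10% FBS and attached overnight, then given compound in 1% DMSO final for 72 h at 37 °C, 5% CO2. Viable cells by MTS/PMS read-out, normalised to 1% DMSO as 100% proliferation. IC50 from separate triplicate experiments.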

[4] = test system: PC-3 (androgen independent prostate cancer cells); assay: Anti-proliferation activity against PC-3 cells; details: for IC50: Homo sapiens, PC-3, read-out: IC50 PC-3
Procedure, shortened: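 Antiproliferative activity was tested in PC-3 androgen-independent prostate cancer cells. Cells grown at 37° C. with 5% CO2 in Advanced DMEM/F12 (1:1) containing non-essential amino acids, 2 mM L-glutamine, streptomycin, penicillin and 10% FBS were plated at 2000/well in 96-well plates. Proliferation was normalized to 1% DMSO controls, and IC50 values from triplicate experiments were fitted in GraphPad Prism.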

[5] = test system: LN3 (metastatic human prostate cancer cells); assay: Anti-proliferation activity against LN3 cells (MTS/PMS)
Description: as §2, with “μg/mL),” for “ng/mL),”, “μL)” for “μl)”

[6] = test system: MM2 (metastatic mammary tumor cancer cells); assay: Anti-proliferation activity against MM2 cells (MTS/PMS)
Description: as §2, with “μg/mL),” for “ng/mL),”, “μL)” for “μl)”

[7] = test system: A549 (human alveolar basal epithelial cells); assay: Anti-proliferation activity against A549 cells (MTS/PMS)
Description: as §2, with “μg/mL),” for “ng/mL),”, “μL)” for “μl)”

[8] = test system: HCT-116 (colon cancer cells characterized by wild-type p53); assay: Anti-proliferation activity against HCT-116 cells; details: Homo sapiens, Table 2, n = 3
[9] = test system: PL45 (pancreatic cancer cells); assay: Anti-proliferation activity against PL45 cells; details: Table 2, n = 3
[10] = Homo sapiens, SK-BR-3, Table 6, 72 hours, MTS/PMS, mean ± standard deviation, read-out: IC50 SKBr3
[11] = Homo sapiens, MCF7, Table 6, 72 hours, MTS/PMS, mean ± standard deviation, read-out: IC50 MCF-7
[12] = Table 6, 72 hours, MTS/PMS, mean ± standard deviation, read-out: IC50 LnCaP
[13] = Table 6, 72 hours, MTS/PMS, mean ± standard deviation
[14] = Homo sapiens, SK-BR-3, Table 12, aliphatic chain analogues, 72 hours, read-out: IC50 SKBr3
[15] = Homo sapiens, MCF7, Table 12, aliphatic chain analogues, 72 hours, read-out: IC50 MCF-7
[16] = Homo sapiens, Table 12, aliphatic chain analogues, 72 hours
[17] = Table 12, aliphatic chain analogues, 72 hours
[18] = Homo sapiens, A549, Table 12, aliphatic chain analogues, 72 hours
[19] = Homo sapiens, SK-BR-3, Table 20, indole-2-carboxamide analogues with noviose replacements, read-out: IC50, SKBr3
[20] = Homo sapiens, MCF7, Table 20, indole-2-carboxamide analogues with noviose replacements, read-out: IC50, MCF-7
[21] = Homo sapiens, Table 20, indole-2-carboxamide analogues with noviose replacements
[22] = Table 20, indole-2-carboxamide analogues with noviose replacements
[23] = Homo sapiens, A549, Table 20, indole-2-carboxamide analogues with noviose replacements
[24] = Table 13, various sugars on 8-methyl coumarin, 72 hours

Structure (SMILES): CC(C)=CCc1cc(C(=O)Nc2cc3ccc(O[C@@H]4C[C@H](O)CCO4)c(C)c3oc2=O)ccc1O [18b, KU-430, 4-Hydroxy-N-(7-((2R,4R)-4-hydroxytetrahydro-2H-pyran-2-yloxy)-8-methyl-2-oxo-2H-chromen-3-yl)-3-(3-methylbut-2-enyl)benzamide]
- IC50 ([1]; Homo sapiens, SK-BR-3, Table 18, modified furanose or pyranose noviose replacements, read-out: IC50, SKBr3): 3.11 ± 0.19 µM
- IC50 ([1]; Homo sapiens, SK-BR-3, text of Example 47, read-out: IC50 SKBr3): 3.11 ± 0.03 µM
- IC50 ([2]; Homo sapiens, MCF7, Table 18, modified furanose or pyranose noviose replacements, read-out: IC50, MCF7): 1.56 ± 0.09 µM
- IC50 ([2]; Homo sapiens, MCF7, text of Example 47, read-out: IC50 MCF-7): 1.56 ± 0.2 µM
- times/fold more active than DHN2 (anti-proliferative activity) (cancer cell lines): ~3 fold
- times/fold more active than novobiocin (anti-proliferative activity) (cancer cell lines): ~200 fold

Structure (SMILES): COc1cccc(-c2cc(C(=O)Nc3cc4c(OC)cc(O[C@@H]5OC(C)(C)[C@H](OC)[C@@H](O)[C@H]5O)c(C)c4oc3=O)ccc2OC)c1 [26d, N-(7-((2R,3R,4S,5R)-3,4-dihydroxy-5-methoxy-6,6-dimethyltetrahydro-2H-pyran-2-yloxy)-5-methoxy-8-methyl-2-oxo-2H-chromen-3-yl)-3′,6-dimethoxybiphenyl-3-carboxamide]
- IC50 [1, 10]: 55.7 ± 6.9 µM
- IC50 [2, 11]: 82.8 µM
- IC50 [3, 12]: 2 ± 0.8 µM
- IC50 [4, 13]: 11.3 ± 2 µM
- fold reduced activity versus the compound with a hydrogen at the 5-position (cancer cell lines): 4 fold

Structure (SMILES): COc1cccc(-c2cc(C(=O)Nc3cc4ccc(O[C@@H]5OC(C)(C)[C@H](OC)[C@@H](O)[C@H]5O)c(OC)c4oc3=O)ccc2OC)c1 [26g, N-(7-((2S,3R,4S,5R)-3,4-dihydroxy-5-methoxy-6,6-dimethyltetrahydro-2H-pyran-2-yloxy)-8-methoxy-2-oxo-2H-chromen-3-yl)-3′,6-dimethoxybiphenyl-3-carboxamide]
- IC50 [1, 10]: 13.9 ± 1.2 µM
- IC50 [2, 11]: 9 ± 5.4 µM
- IC50 [3, 12]: 1.1 ± 0.1 µM
- IC50 [4, 13]: 2.3 ± 2.9 µM
- fold increased activity versus the 8-methyl derivative ([4]; PC-3 cells): 10 fold
- fold improved activity over its 8-methyl counterpart (cancer cell lines; breast cancer cells): 2 fold
- fold increased activity over 8-ethyl 26h (cancer cell lines; breast cancer cells): 5 fold

Structure (SMILES): COc1cc(O[C@@H]2OC(C)(C)[C@H](OC)[C@@H](O)[C@H]2O)c(C)c2oc(=O)c(NC(=O)c3cc4ccccc4[nH]3)cc12 [26l, N-(7-((2R,3R,4S,5R)-3,4-dihydroxy-5-methoxy-6,6-dimethyltetrahydro-2H-pyran-2-yloxy)-5-methoxy-8-methyl-2-oxo-2H-chromen-3-yl)-1H-indole-2-carboxamide]
- IC50 [1, 10]: 9 ± 0.8 µM
- IC50 [2, 11]: 6.1 ± 1.7 µM
- IC50 [3, 12]: 12.9 ± 4.4 µM
- IC50 [4, 13]: 11.8 ± 1.3 µM
- fold reduced activity versus the compound with a hydrogen at the 5-position (cancer cell lines): 15 fold

Structure (SMILES): CO[C@@H]1[C@@H](O)[C@@H](O)[C@H](Oc2ccc3cc(NC(=O)c4cc5ccccc5[nH]4)c(=O)oc3c2Cc2ccccc2)OC1(C)C [26m, N-(8-benzyl-7-((2R,3R,4S,5R)-3,4-dihydroxy-5-methoxy-6,6-dimethyltetrahydro-2H-pyran-2-yloxy)-2-oxo-2H-chromen-3-yl)-1H-indole-2-carboxamide]
- IC50 [1, 10]: 38 ± 3 µM
- IC50 [2, 11]: 13.2 ± 0.6 µM
- fold less active than the 8-methyl derivative ([2]; MCF-7 cells): 23 fold
- IC50 [3, 12]: 67.6 ± 6.3 µM
- IC50 [4, 13]: 73.3 ± 3.7 µM
- fold less active than the 8-methyl analogue (cancer cell lines; PC-3 and LnCaP cells): about 4 fold

Structure (SMILES): COc1cccc(-c2cc(C(=O)Nc3cc4cc(OC)c(OCCN(C)C)c(C)c4oc3=O)ccc2OC)c1 [KU-294]
- IC50 [1, 14]: 1.42 ± 0.26 µM
- IC50 [2, 15]: 1.29 ± 0.21 µM
- IC50 [5, 16]: 4.71 µM
- IC50 [6, 17]: 4.87 µM
- IC50 [7, 18]: 2.21 µM

Structure (SMILES): COc1cccc(-c2cc(C(=O)Nc3cc4ccc(OCCCN(C)C)c(C)c4oc3=O)ccc2OC)c1 [KU-317]
- IC50 [1, 14]: 0.6 ± 0.01 µM
- IC50 [2, 15]: 0.5 ± 0.04 µM
- IC50 [5, 16]: 37.5 µM
- IC50 [6, 17]: 12.8 µM
- IC50 [7, 18]: 13.1 µM

Structure (SMILES): COc1cccc(-c2cc(C(=O)Nc3cc4ccc(OCCCN(C)C)c(OC)c4oc3=O)ccc2OC)c1 [KU-319]
- IC50 [1, 14]: 0.91 ± 0.17 µM
- IC50 [2, 15]: 1.53 ± 0.18 µM
- IC50 [5, 16]: 8.03 µM
- IC50 [6, 17]: 4.08 µM
- IC50 [7, 18]: 3.43 µM

Structure (SMILES): Cc1c(OC2CCN(C)CC2)ccc2cc(NC(=O)c3cc4ccccc4[nH]3)c(=O)oc12 [KU-361]
- IC50 [1, 19]: 0.48 ± 0.11 µM
- IC50 [2, 20]: 0.57 ± 0.04 µM
- IC50 [5, 21]: 11.8 ± 0.68 µM
- IC50 [6, 22]: 11.4 ± 6.56 µM
- IC50 [7, 23]: 3.91 µM

Structure (SMILES): COc1cc2cc(NC(=O)c3cc4ccccc4[nH]3)c(=O)oc2c(C)c1OC1CCN(C)CC1 [KU-363]
- IC50 [1, 19]: 0.11 ± 0.01 µM
- IC50 [2, 20]: 0.52 ± 0.05 µM
- IC50 [5, 21]: 1.47 ± 0.66 µM
- IC50 [6, 22]: 0.87 ± 0.57 µM
- IC50 [7, 23]: 0.59 µM

Structure (SMILES): COc1cc2cc(NC(=O)c3cc4ccccc4[nH]3)c(=O)oc2c(C)c1OC1CCCN(C)C1 (stereo not shown) [KU-366]
- IC50 [1, 19]: 0.15 ± 0.06 µM
- IC50 [2, 20]: 0.69 ± 0.12 µM
- IC50 [5, 21]: 14.8 µM
- IC50 [6, 22]: 42.8 µM
- IC50 [7, 23]: > 100 µM

Structure (SMILES): CO[C@@H]1[C@@H](O)[C@@H](O)[C@H](Oc2ccc3cc(NC(=O)c4cccc(N)c4)c(=O)oc3c2C)OC1(C)C [compound 19, 3-Amino-N-(7-((2R,3R,4S,5R)-3,4-dihydroxy-5-methoxy-6,6-dimethyltetrahydro-2H-pyran-2-yloxy)-8-methyl-2-oxo-2H-chromen-3-yl)benzamide]
- IC50 ([1]; Homo sapiens, SK-BR-3, Table 2, n = 3, read-out: IC50 SkBr3): 61.4 ± 4.7 µM
- IC50 ([1]; Table 13, various sugars on 8-methyl coumarin, 72 hours, read-out: IC50 SKBr3): 12.5 ± 0.7 µM
- IC50 ([2]; Homo sapiens, MCF7, Table 2, n = 3, read-out: IC50 MCF-7): 30.1 ± 3.4 µM
- IC50 ([2]; Table 13, various sugars on 8-methyl coumarin, 72 hours, read-out: IC50 MCF7): 37.2 ± 2.1 µM
- IC50 [8]: 21.2 ± 2.2 µM
- IC50 [9]: 12.5 ± 0.9 µM
- IC50 ([3]; Table 2, n = 3, read-out: IC50 LNCaP): 24.8 ± 9.7 µM
- IC50 ([4]; Table 2, n = 3): 14.7 ± 2.6 µM
- IC50 [5, 24]: 3.65 µM
- IC50 [6, 24]: 30.6 µM
- IC50 [7, 24]: > 100 µM
